{"source": "patent US10905651B1", "about": "“Zeinmersome nanocarriers for drug delivery to the liver” (King Abdulaziz University, priority 2020, dated 2021)", "origin": "cited, not measured here", "conditions": "cited from earlier work", "data": [{"smiles": "CCCc1nc(C(C)(C)O)c(C(=O)O)n1Cc1ccc(-c2ccccc2-c2nnn[nH]2)cc1", "note": "[olmesartan]", "values": [{"measurement": "oral bioavailability of olmesartan", "setting": "Kobayashi et al. 2000", "value": 4.5, "unit": "%"}, {"measurement": "volume of distribution (Vd)", "setting": "following IV administration", "value": "15 to 25", "unit": "L"}]}]}
